Key:
[1] = biological target: T1, muscarinic M3 receptor (Homo sapiens, UniProt P20309); assay: Binding assay M3 (h), [3H]4-DAMP, CHO cells; conditions: read-out: M3 [%]
T1 construct: expressed in transfected cells; host or cells: CHO cells
Procedure, shortened: (§1)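 Detection relied on scintillation counting of bound ligand. Compounds at 1×10^−6 M were evaluated against specific binding, i.e. total binding corrected for the nonspecific fraction seen with excess unlabelled ligand.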

[2] = biological target: T2, serotoninergic 5-HT2A receptor (Homo sapiens, UniProt P28223); assay: Cellular functional assay, serotoninergic 5-HT2A receptor (agonism/antagonism); assay type: cell-based; conditions: for activation at 1 µM: read-out: 5-HT2A -ag [%]; for inhibition at 1 µM: read-out: 5-HT2A -antag [%]
Procedure, shortened: (§2)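 Human receptors tested in cell-based functional format for both agonist and antagonist modes. Single compound concentration of 1×10^−6M.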

[3] = biological target: T3, serotoninergic 5-HT7 receptor (Homo sapiens, UniProt P34969); assay: Binding assay 5-HT7 (h), [3H]LSD, CHO cells; set-up: expressed in transfected cells; host or cells: CHO cells; conditions: read-out: 5-HT7
Procedure, shortened: as §1

[4] = biological target: T4, dopaminergic D2 receptor (Homo sapiens, UniProt P14416); assay: Cellular functional assay, dopaminergic D2 receptor (agonism/antagonism); assay type: cell-based; conditions: HEK293; for activation at 1 µM: agonist effect, percent of control specific agonist response (3 μM dopamine for control), 1×10^−6 M, D2S (h), HEK-293 cells, read-out: D2-ag [%]; for inhibition at 1 µM: read-out: D2-antag. [%]
Description: (§3) The compounds were tested at the concentration of 1×10^−6M.
(§4) In the Tables ag refers to agonism, and antag to antagonism).
Target sequence in this assay (P14416 whole entry): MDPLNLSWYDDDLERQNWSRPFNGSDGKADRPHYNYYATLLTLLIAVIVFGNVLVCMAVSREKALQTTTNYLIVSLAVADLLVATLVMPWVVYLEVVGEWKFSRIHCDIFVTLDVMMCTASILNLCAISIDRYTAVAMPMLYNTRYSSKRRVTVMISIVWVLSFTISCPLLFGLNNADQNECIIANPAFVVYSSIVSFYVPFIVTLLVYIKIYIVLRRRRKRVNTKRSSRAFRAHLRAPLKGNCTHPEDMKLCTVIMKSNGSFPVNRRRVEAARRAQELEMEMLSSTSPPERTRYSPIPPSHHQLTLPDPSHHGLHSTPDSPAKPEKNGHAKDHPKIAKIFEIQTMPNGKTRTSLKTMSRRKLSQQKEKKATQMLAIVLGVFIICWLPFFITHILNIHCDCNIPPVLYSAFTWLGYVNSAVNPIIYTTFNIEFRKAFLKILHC

[5] = biological target: T5, adrenergic α1A receptor (Homo sapiens, UniProt P35348); assay: Cellular functional assay, adrenergic α1A receptor (agonism/antagonism); assay type: cell-based; conditions: for activation at 1 µM: agonist effect, percent of control specific agonist response, compounds tested at 1×10^−6M, read-out: α1A -ag [%]; for inhibition at 1 µM: read-out: α1A -antag. [%]
T5 sequence (P35348 1-466): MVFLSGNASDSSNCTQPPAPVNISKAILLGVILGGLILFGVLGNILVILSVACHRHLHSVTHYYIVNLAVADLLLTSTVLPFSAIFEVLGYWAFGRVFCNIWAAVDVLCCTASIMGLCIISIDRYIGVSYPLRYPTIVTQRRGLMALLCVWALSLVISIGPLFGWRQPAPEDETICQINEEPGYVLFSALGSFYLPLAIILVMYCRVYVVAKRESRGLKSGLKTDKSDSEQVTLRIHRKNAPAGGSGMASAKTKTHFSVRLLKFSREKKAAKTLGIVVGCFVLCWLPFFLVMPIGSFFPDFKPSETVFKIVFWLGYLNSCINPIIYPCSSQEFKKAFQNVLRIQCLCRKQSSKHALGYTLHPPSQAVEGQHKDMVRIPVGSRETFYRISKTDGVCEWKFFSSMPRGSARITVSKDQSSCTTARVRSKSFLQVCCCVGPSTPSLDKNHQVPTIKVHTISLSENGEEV
Procedure, shortened: as §2

[6] = biological target: T3, serotoninergic 5-HT7 receptor; assay: Cellular functional assay, serotoninergic 5-HT7 receptor (agonism/antagonism); assay type: cell-based; conditions: for activation at 1 µM: agonist effect, percent of control specific agonist response, compounds tested at 1×10^−6M, read-out: 5-HT7-ag [%]; for inhibition at 1 µM: read-out: 5-HT7-antag. [%]
Description: as §3, §4

[7] = biological target: dopaminergic D3 receptor (Homo sapiens, UniProt P35462); assay: Cellular functional assay, dopaminergic D3 receptor (agonism/antagonism); assay type: cell-based; conditions: for inhibition at 1 µM: CHO, read-out: D3-antag. [%]; for activation at 1 µM: agonist effect, percent of control specific agonist response (300 nM dopamine for control), 1×10^−6 M, D3 (h), CHO cells, read-out: D3-ag [%]
Description: as §3, §4

[8] = biological target: histaminergic H1 receptor (Homo sapiens, UniProt P35367); assay: Binding assay H1 (h), [3H]pyrilamine, HEK-293 cells; set-up: expressed in transfected cells; host or cells: HEK-293 cells; conditions: read-out: H1 [%]
Procedure, shortened: as §1

[9] = biological target: T2, serotoninergic 5-HT2A receptor; assay: Binding assay 5-HT2A (h), [3H]ketanserin, HEK-293 cells; set-up: expressed in transfected cells; host or cells: HEK-293 cells; conditions: read-out: 5-HT2A
Procedure, shortened: as §1

[10] = biological target: T6, adrenergic α2C receptor (Homo sapiens, UniProt P18825); assay: Binding assay α2C (h), [3H]RX 821002, CHO cells; set-up: expressed in transfected cells; host or cells: CHO cells; conditions: read-out: α2C [%]
T6 sequence (P18825 1-462): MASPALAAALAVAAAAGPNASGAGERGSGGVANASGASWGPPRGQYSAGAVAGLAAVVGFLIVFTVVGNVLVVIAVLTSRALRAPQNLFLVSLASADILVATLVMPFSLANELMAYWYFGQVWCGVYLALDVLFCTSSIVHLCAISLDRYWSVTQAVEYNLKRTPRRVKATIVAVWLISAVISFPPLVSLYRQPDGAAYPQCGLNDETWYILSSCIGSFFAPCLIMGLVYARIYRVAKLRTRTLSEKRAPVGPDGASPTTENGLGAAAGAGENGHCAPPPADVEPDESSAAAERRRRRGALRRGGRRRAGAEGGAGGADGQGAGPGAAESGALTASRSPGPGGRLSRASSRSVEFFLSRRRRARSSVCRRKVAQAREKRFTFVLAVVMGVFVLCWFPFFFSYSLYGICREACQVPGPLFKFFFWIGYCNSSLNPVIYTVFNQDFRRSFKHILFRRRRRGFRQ
Procedure, shortened: as §1

[11] = test system: sigma σ receptor; assay: Binding assay σ (non-selective), [3H]DTG, rat cerebral cortex; conditions: percent inhibition of control specific binding; compounds tested at 1×10^−6 M
Procedure, shortened: as §1

[12] = biological target: T7, serotonine transporter (SERT) receptor (Homo sapiens, UniProt P31645); assay: Binding assay SERT (h), [3H]imipramine, CHO cells; conditions: read-out: SERT [%]
T7 construct: expressed in transfected cells; host or cells: CHO cells
Procedure, shortened: as §1

[13] = biological target: T4, dopaminergic D2 receptor; assay: Binding assay D2S (h), [3H]methyl-spiperone, HEK-293 cells; set-up: expressed in transfected cells; host or cells: HEK-293 cells; conditions: read-out: D2 [%]
Procedure, shortened: as §1
Target sequence in this assay (P14416 1-414 isoform P14416-2): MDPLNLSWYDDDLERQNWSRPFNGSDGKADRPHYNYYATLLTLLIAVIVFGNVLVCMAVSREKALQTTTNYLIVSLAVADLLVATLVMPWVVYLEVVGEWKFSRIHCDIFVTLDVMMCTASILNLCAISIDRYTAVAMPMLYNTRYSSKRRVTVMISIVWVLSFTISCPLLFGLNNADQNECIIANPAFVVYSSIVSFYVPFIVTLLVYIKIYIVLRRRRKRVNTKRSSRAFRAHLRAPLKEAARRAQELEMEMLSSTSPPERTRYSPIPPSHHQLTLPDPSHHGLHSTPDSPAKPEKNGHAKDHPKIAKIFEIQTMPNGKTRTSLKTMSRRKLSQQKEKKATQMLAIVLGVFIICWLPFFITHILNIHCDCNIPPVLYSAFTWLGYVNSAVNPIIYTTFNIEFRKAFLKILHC

[14] = test system: adrenergic α1 receptor; assay: Binding assay α1 (non-selective), [3H]prazosin, rat cerebral cortex; conditions: percent inhibition of control specific binding; compounds tested at 1×10^−6 M
Procedure, shortened: as §1

T1 sequence (P20309 whole entry): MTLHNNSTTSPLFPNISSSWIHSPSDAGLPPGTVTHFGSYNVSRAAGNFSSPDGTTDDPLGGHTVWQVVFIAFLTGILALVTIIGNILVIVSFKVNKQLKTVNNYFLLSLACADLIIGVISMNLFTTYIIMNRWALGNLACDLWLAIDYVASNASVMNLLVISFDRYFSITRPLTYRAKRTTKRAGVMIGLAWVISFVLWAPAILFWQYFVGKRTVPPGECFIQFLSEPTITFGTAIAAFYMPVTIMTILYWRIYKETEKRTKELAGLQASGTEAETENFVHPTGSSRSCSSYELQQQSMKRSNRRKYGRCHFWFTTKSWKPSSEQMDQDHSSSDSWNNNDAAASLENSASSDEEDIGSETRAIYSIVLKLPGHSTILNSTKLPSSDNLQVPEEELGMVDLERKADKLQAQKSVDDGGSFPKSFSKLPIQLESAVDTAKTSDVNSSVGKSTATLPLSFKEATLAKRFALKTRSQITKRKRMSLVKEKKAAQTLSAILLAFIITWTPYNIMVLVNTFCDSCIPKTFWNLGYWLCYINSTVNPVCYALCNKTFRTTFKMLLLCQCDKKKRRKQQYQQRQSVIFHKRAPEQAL
histaminergic H1 receptor, sequence (P35367 whole entry): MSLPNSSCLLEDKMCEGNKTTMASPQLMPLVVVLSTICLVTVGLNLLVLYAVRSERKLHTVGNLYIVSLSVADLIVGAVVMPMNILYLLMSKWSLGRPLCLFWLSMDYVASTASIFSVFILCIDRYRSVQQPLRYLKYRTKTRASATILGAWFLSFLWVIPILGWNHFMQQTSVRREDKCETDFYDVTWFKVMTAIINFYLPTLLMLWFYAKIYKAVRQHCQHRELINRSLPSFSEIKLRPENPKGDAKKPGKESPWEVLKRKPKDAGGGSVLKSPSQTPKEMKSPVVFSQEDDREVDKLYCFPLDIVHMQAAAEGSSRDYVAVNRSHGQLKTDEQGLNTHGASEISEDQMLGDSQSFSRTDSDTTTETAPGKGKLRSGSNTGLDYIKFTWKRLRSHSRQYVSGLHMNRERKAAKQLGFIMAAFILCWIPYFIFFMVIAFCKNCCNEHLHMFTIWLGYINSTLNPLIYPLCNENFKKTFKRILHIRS
T3 sequence (P34969 whole entry): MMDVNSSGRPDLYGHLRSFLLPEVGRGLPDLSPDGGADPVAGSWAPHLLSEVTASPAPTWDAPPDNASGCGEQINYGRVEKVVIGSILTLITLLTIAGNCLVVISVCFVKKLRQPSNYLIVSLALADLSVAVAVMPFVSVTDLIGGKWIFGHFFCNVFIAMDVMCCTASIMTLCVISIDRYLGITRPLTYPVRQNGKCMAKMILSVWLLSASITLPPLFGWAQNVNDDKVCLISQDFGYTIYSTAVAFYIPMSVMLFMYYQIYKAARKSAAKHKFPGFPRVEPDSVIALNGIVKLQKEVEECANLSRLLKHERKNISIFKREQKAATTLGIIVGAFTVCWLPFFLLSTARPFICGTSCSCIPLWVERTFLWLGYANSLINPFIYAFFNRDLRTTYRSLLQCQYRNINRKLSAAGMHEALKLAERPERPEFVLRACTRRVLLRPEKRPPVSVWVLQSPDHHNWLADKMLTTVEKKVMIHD
dopaminergic D3 receptor, sequence (P35462 whole entry): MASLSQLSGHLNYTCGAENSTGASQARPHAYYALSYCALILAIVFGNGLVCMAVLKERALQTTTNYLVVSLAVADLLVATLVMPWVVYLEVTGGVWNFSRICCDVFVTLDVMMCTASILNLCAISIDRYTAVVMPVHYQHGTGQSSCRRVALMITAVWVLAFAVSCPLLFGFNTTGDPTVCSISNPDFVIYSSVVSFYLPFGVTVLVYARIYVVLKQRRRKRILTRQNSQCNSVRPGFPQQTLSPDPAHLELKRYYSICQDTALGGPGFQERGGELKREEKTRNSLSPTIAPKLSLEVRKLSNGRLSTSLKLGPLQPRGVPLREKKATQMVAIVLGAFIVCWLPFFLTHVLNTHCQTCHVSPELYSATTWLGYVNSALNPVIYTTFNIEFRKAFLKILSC
T7 sequence (P31645 whole entry): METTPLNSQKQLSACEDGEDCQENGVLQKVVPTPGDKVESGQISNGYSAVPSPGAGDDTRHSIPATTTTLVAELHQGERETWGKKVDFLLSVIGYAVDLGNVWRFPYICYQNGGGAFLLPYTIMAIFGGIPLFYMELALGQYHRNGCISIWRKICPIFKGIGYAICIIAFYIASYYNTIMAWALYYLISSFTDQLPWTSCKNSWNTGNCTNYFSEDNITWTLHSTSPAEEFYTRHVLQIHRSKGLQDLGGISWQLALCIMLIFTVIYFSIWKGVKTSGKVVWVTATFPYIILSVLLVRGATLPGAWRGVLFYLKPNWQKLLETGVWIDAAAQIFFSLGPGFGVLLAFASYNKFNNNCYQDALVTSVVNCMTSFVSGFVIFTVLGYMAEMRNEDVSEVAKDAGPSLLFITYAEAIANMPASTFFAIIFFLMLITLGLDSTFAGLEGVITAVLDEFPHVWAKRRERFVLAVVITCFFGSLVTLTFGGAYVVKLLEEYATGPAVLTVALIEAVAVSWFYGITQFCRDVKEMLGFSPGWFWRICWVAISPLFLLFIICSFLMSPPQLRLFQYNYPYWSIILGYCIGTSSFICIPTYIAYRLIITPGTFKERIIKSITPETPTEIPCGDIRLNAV
T2 sequence (P28223 whole entry): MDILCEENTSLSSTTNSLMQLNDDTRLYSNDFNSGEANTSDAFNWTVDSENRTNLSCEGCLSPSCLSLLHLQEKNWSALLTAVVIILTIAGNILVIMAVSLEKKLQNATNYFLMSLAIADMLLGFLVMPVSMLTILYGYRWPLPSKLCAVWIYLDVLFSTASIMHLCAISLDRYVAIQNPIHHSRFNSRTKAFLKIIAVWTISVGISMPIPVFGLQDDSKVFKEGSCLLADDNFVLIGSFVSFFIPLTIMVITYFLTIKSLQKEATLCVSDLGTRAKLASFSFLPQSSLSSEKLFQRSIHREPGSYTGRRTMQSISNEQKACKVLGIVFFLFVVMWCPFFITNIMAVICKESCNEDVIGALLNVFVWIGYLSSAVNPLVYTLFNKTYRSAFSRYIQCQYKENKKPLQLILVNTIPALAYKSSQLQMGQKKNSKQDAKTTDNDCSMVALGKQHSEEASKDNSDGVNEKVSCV

Compound: O=S(=O)(NCCCCN1CCN(c2noc3ccccc23)CC1)c1cc2ccc(Cl)cc2s1 [Compound 288, N-[4-[4-(1,2-Benzoxazol-3-yl)piperazin-1-yl]butyl]-6-chlorobenzothiophene-2-sulphonamide]
- inhibition at 1 µM [1]: 3%
- activation at 1 µM [2]: -2%
- inhibition at 1 µM [2]: 97%
- inhibition at 1 µM [3]: 100%
- activation at 1 µM [4]: 5%
- inhibition at 1 µM [4]: 79%
- activation at 1 µM [5]: 0%
- inhibition at 1 µM [5]: 97%
- activation at 1 µM [6]: -2%
- inhibition at 1 µM [6]: 92%
- inhibition at 1 µM [7]: 72%
- activation at 1 µM [7]: 0%
- inhibition at 1 µM [8]: 94%
- inhibition at 1 µM [9]: 95%
- inhibition at 1 µM [10]: 109%
- σ [%] [11]: 45%
- inhibition at 1 µM [12]: -14%
- inhibition at 1 µM [13]: 103%
- α1 [%] [14]: 94%

Compound: O=S(=O)(NCCCCN1CCC(c2noc3cc(F)ccc23)CC1)c1ccc(Br)cc1 [Compound 298, 4-Bromo-N-[4-[4-(6-fluoro-1,2-benzoxazol-3-yl)piperidin-1-yl]butyl]benzenesulphonamide]
- inhibition at 1 µM [1]: 19%
- activation at 1 µM [2]: -1%
- inhibition at 1 µM [2]: 99%
- inhibition at 1 µM [3]: 100%
- activation at 1 µM [4]: 12%
- inhibition at 1 µM [4]: 84%
- activation at 1 µM [5]: 1%
- inhibition at 1 µM [5]: 100%
- activation at 1 µM [6]: -3%
- inhibition at 1 µM [6]: 98%
- inhibition at 1 µM [7]: 99%
- activation at 1 µM [7]: -8%
- inhibition at 1 µM [8]: 90%
- inhibition at 1 µM [9]: 100%
- inhibition at 1 µM [10]: 98%
- σ [%] [11]: 68%
- inhibition at 1 µM [12]: 35%
- inhibition at 1 µM [13]: 99%
- α1 [%] [14]: 103%

Compound: O=S(=O)(NCCCCN1CCC(c2noc3cc(F)ccc23)CC1)c1cc2ccccc2s1 [Compound 312, N-[4-[4-(6-Fluoro-1,2-benzoxazol-3-yl)piperidin-1-yl]butyl]benzothiophene-2-sulphonamide]
- inhibition at 1 µM [1]: 19%
- activation at 1 µM [2]: -2%
- inhibition at 1 µM [2]: 98%
- inhibition at 1 µM [3]: 97%
- activation at 1 µM [4]: 4%
- inhibition at 1 µM [4]: 90%
- activation at 1 µM [5]: 0%
- inhibition at 1 µM [5]: 100%
- activation at 1 µM [6]: -2%
- inhibition at 1 µM [6]: 97%
- inhibition at 1 µM [7]: 97%
- activation at 1 µM [7]: 10%
- inhibition at 1 µM [8]: 86%
- inhibition at 1 µM [9]: 99%
- inhibition at 1 µM [10]: 92%
- σ [%] [11]: 71%
- inhibition at 1 µM [12]: 35%
- inhibition at 1 µM [13]: 99%
- α1 [%] [14]: 100%

Compound: O=S(=O)(NCCCCN1CCC(c2noc3cc(F)ccc23)CC1)c1csc2ccccc12 [Compound 313, N-[4-[4-(6-Fluoro-1,2-benzoxazol-3-yl)piperidin-1-yl]butyl]benzothiophene-3-sulphonamide]
- inhibition at 1 µM [1]: 25%
- activation at 1 µM [2]: -3%
- inhibition at 1 µM [2]: 98%
- inhibition at 1 µM [3]: 100%
- activation at 1 µM [4]: -5%
- inhibition at 1 µM [4]: 85%
- activation at 1 µM [5]: 0%
- inhibition at 1 µM [5]: 100%
- activation at 1 µM [6]: -2%
- inhibition at 1 µM [6]: 100%
- inhibition at 1 µM [7]: 81%
- activation at 1 µM [7]: 8%
- inhibition at 1 µM [8]: 90%
- inhibition at 1 µM [9]: 101%
- inhibition at 1 µM [10]: 100%
- σ [%] [11]: 83%
- inhibition at 1 µM [12]: 23%
- inhibition at 1 µM [13]: 101%
- α1 [%] [14]: 100%

Compound: O=S(=O)(NCCCCN1CCC(c2noc3cc(F)ccc23)CC1)c1cc2ccc(Cl)cc2s1 [Compound 314, 6-Chloro-N-[4-[4-(6-fluoro-1,2-benzoxazol-3-yl)piperidin-1-yl]butyl]benzothiophene-2-sulphonamide]
- inhibition at 1 µM [1]: 13%
- activation at 1 µM [2]: -2%
- inhibition at 1 µM [2]: 99%
- inhibition at 1 µM [3]: 99%
- activation at 1 µM [4]: 9%
- inhibition at 1 µM [4]: 86%
- activation at 1 µM [5]: 1%
- inhibition at 1 µM [5]: 100%
- activation at 1 µM [6]: -3%
- inhibition at 1 µM [6]: 95%
- inhibition at 1 µM [7]: 110%
- activation at 1 µM [7]: -30%
- inhibition at 1 µM [8]: 93%
- inhibition at 1 µM [9]: 102%
- inhibition at 1 µM [10]: 108%
- σ [%] [11]: 49%
- inhibition at 1 µM [12]: 50%
- inhibition at 1 µM [13]: 99%
- α1 [%] [14]: 100%

Compound: N#Cc1cccc(S(=O)(=O)NCCCN2CCC(c3noc4cc(F)ccc34)CC2)c1 [Compound 338, 3-cyano-N-[3-[4-(6-fluoro-1,2-benzoxazol-3-yl)piperidin-1-yl]propyl]benzenesulphonamide]
- inhibition at 1 µM [1]: 1%
- activation at 1 µM [2]: -1%
- inhibition at 1 µM [2]: 100%
- inhibition at 1 µM [3]: 98%
- activation at 1 µM [4]: 3%
- inhibition at 1 µM [4]: 88%
- activation at 1 µM [5]: 2%
- inhibition at 1 µM [5]: 100%
- activation at 1 µM [6]: -3%
- inhibition at 1 µM [6]: 100%
- inhibition at 1 µM [7]: 109%
- activation at 1 µM [7]: -10%
- inhibition at 1 µM [8]: 95%
- inhibition at 1 µM [9]: 102%
- inhibition at 1 µM [10]: 104%
- σ [%] [11]: 72%
- inhibition at 1 µM [12]: 21%
- inhibition at 1 µM [13]: 98%
- α1 [%] [14]: 99%

Compound: O=S(=O)(NCCCN1CCC(c2noc3cc(F)ccc23)CC1)c1ccc2cn[nH]c2c1 [Compound 352, N-[3-[4-(6-Fluoro-1,2-benzoxazol-3-yl)piperidin-1-yl]propyl]-1H-indazole-6-sulphonamide]
- inhibition at 1 µM [1]: 12%
- activation at 1 µM [2]: -1%
- inhibition at 1 µM [2]: 100%
- inhibition at 1 µM [3]: 100%
- activation at 1 µM [4]: 12%
- inhibition at 1 µM [4]: 88%
- activation at 1 µM [5]: 1%
- inhibition at 1 µM [5]: 100%
- activation at 1 µM [6]: -2%
- inhibition at 1 µM [6]: 102%
- inhibition at 1 µM [7]: 113%
- activation at 1 µM [7]: -18%
- inhibition at 1 µM [8]: 97%
- inhibition at 1 µM [9]: 101%
- inhibition at 1 µM [10]: 100%
- σ [%] [11]: 76%
- inhibition at 1 µM [12]: 56%
- inhibition at 1 µM [13]: 100%
- α1 [%] [14]: 99%

— patent US8822517B2, “Arylosulfonamides for the treatment of CNS diseases” (Adamed SP. Z O.O., priority 2010, dated 2014)
